In patent publication US20250186597A1, “TARGETED IMMUNE ACTIVATION WITH IL-18 IMMUNOCYTOKINES” (BRIGHT PEAK THERAPEUTICS AG, priority 2023, published 2025):

Experiments:
Assay type in all cases: cell-based, human
[1] = tested on: PD-1 positive (transduced) KG-1 cells; experiment: IFN gamma secretion assay in PD-1 transduced KG-1 cells (Example 11)
Procedure: The KG-1 cell line was used to generate a PD-1 expressing cell line and furthermore, to measure IFNγ release upon incubation with IL-18 variants and corresponding IL-18 immunocytokines.
PD-1 expressing cell line generation: Briefly, KG-1 cells were transduced using lentiviral particles carrying the human PD-1 gene (PDCD1 NM_005018; Origene, CAT #: RC210364L3V) at a MOI (Multiplicity of Infection) of 30. Spinfection was performed at 1260 g during 90 min at 37° C. in the presence of 5 μg/ml of Polybrene and 10 mM of HEPES in complete culture media (RPMI, 10% FBS, 1% L-Glutamine). Five days after transduction, puromycin at a final concentration of 1 ug/ml was added to select for PD-1 positive cells. For culture maintenance, puromycin concentration was decreased to 0.5 μg/ml. Stable and homogenous expression of PD-1 was verified by surface staining (BD Pharmingen, #557860).
IFNγ release was assessed in PD-1 positive (transduced) KG-1 cells, as well as in the parental PD-1 negative cells. 0.5×10^5 cells were seeded into a 96-well U-bottom plate in culture media (RPMI, 10% FBS, 1% L-Glutamine) and stimulated with IL-18 variants/ICs for 20-24 h. The test items were diluted to 100 nM in culture medium, followed by 7 10-fold serial dilutions. The lowest concentration assessed was […]. After incubation, IFNγ release was measured using the LEGENDplex custom human mix and match KIT (Biolegend LEGENDplex™ Human IFN-γ Capture Bead B5, 13X #740942, LEGENDplex™ HU Essential Immune Response Panel Detection Abs, #740931, LEGENDplex™ Buffer Set A #740368). To this end, cell culture supernatant was collected and diluted 1:1 with Assay Buffer. Fluorescence measurements were done with a Quanteon Flow Cytometer from Acea Biosciences. For analysis, MFI values (median fluorescence intensity) were exported and plotted against concentrations used. The EC50 values (half maximal effective concentration) were calculated based on a variable slope and four parameter analysis using GraphPad PRISM software version 9.

NK92 cells = experiment: Cellular IL-18 Binding Protein resistance assay in NK92 cells (Example 13); settings: IL-18BP-mediated inhibition of IFNγ secretion, IL-18 analyte 1 nM
Procedure: The NK cell line NK-92 derived from a patient with lymphoma (ATCC, Cat #CR^L-2407) was cultured in αMEM medium supplemented with 20% FCS-Glutamax, 25 μM B-mercaptoethanol, and 100 IU/ml of recombinant Human Interleukin-2 (IL-2). On the day of experiment, cells were harvested and washed with αMEM medium without IL-2. After counting, cells were seeded at 100 000 cells/well in a 384 well titer plate and incubated at 37° C./5% CO2. Sixteen 2-fold serial dilutions of Fc fused human IL-18 binding protein isoform a (IL-18BPa; R&D systems, Cat #119-BP) were prepared in αMEM medium—1 ng/ml IL-12 containing 2 nM of each IL-18 variants and were added to the NK-92 cells. Final IL-18 analytes concentration was 1 nM and final IL-18BPa concentrations ranged from to 566 nM down to 17 pM.
(§1) After 16-20 h incubation at 37° C./5% CO2, 5 μl of supernatant were carefully transferred to a 384 microwells OPTIplate (Perkin Elmer; Cat #6007270) and Interferon-gamma (IFNγ) levels measured using the Human IFNγ AlphaLISA Assay Kit (Perkin Elmer, Cat #AL217C). […] AlphaLisa signal was then measured on an Enspire plate reader (Perkin Elmer) using 680 and 615 nm as excitation and emission wavelengths respectively. Half maximal inhibitory concentration (IC50) was calculated based on a variable slope, four parameter analysis using GraphPad PRISM software.

[2] = tested on: parental PD-1negative NK-92 cells; experiment: IL-18BP mediated inhibition of IFN gamma secretion in parental PD-1 negative NK-92 cells (Example 18); settings: IL-18BP-mediated inhibition of IFNγ secretion, IL-18 analyte 1 nM
Procedure: To characterize the resistance of anti-PD1-IL18 immunocytokines (IC) on PD-1 positive cells, the NK-92 cell line was used to generate a PD-1 expressing cell line and furthermore, to measure the inhibition of IFN[…] release upon incubation with IL-18 variants and ICs in the presence of increasing quantities of human IL-18BP.
On the day of experiment, parental PD-1^negative and PD-1^positive transduced cells were harvested and washed with PBS 1× and resuspended in medium (w/o IL-2) containing 1 ng/ml of recombinant human Interleukin-12 (SinoBiologicals, Cat #CT011-H08H). After counting, cells were seeded at 100 000 cells/well in a 384 well culture plate and incubated at 37° C./5% CO2. When indicated, cells were preincubated with anti-PD-1 antibody LZM-009 at 17 uM during 30 min at 37° C. […]
as §1, with “microwell OptiIPlate” for “microwells OPTIplate”, “AlphaLISA” for “AlphaLisa”

EC50 ([1]; IFNγ secretion, PD-1 transduced KG-1): 0.297 nM
PD-1^neg/PD-1^pos EC50 ratio ([1]; KG-1 cells): 1.298
IC50 (NK92 cells): 0.781 nM
Substance: SEQ ID NO: 1: Native sequence of human IL-18 (bioactive form) [reference compound]
IC50 [2]: 2.97 nM
